The test system of this experiment is c-myc in 22RV-1 cells. The experiment in a line: Human c-myc ELISA assay. The following applies: Homo sapiens; for Emax: 22Rv1, 18 h, read-out: Degradation of BRD4: Maximum inhibition (%) c-Myc ELISA in 22RV1 cells; for DC50: 22Rv1, read-out: Degradation of BRD4: DC50 (uM) c-Myc ELISA in 22RV1 cells. It is filed as cell-based. The method, then: 22RV-1 cells are seeded at 30,000 cells/well at a volume of 75 μL/well in RPMI+10% FBS media in 96-well plates and grown overnight at 37 C. Cells are dosed with compounds at 4× concentration diluted in 0.4% DMSO; compounds are serially diluted 1:3 for 8-point dose curve. 25 ul of compounds is added to cells for a final concentration starting at 300 nM-0.3 nM or 1 uM-1 nM in 0.1% DMSO and incubated for 18 hrs. Media is aspirated, cells washed 1× with PBS and aspirated. Cells are lysed in 50 ul RIPA buffer (50 mM Tris pH8, 150 mM NaCl, 1% Tx-100, 0.1% SDS, 0.5% sodium deoxycholate) supplemented with protease and phosphatase inhibitors. Plates are incubated on ice for 15 minutes then centrifuged at 4 C for 10 min at 4000 rpm. Add 50 ul of cleared lysate from 96-well assay plate into 96-well c-myc ELISA plate (Novex, Life Technologies Catalog #KH02041). Reconstitute c-myc standard with standard diluent buffer; standard curve range is 333 pg/ml-0 pg/ml, diluted 1:2 for 8-point dose curve. The rest of the assay was performed following the protocol from the c-myc ELISA kit. Data is analyzed and plotted using GraphPad Prism software. Compounds described in this application were assayed and c-myc suppression potency is listed in the following Table (A: DC50<10 nM; B: DC50 10-100 nM; C: DC50: 100-1000 nM; D: DC50>1000 nM)
For orientation: ELISA stands for enzyme-linked immunosorbent assay.

Some results are limits rather than exact numbers.

For `Cc1ncsc1-c1ccc(CNC(=O)[C@@H]2C[C@@H](O)CN2C(=O)[C@H](c2cc(OCCN3CC[C@@H](NC(=O)C[C@@H]4N=C(c5ccc(Cl)cc5)c5c(sc(C)c5C)-n5c(C)nnc54)C3)no2)C(C)C)cc1` (single isomer, unassigned) [Example 311], the Emax was 43.6% and the DC50 is greater than 1 µM.
Take `Cc1ncsc1-c1ccc(CNC(=O)[C@@H]2C[C@@H](O)CN2C(=O)[C@@H](c2cc(OCCN3CC[C@@H](NC(=O)C[C@@H]4N=C(c5ccc(Cl)cc5)c5c(sc(C)c5C)-n5c(C)nnc54)C3)no2)C(C)C)cc1` (single isomer, unassigned) [Example 312]: the Emax is 87.5% and the DC50 was less than 0.01 µM.
Regarding `Cc1ncsc1-c1ccc(CNC(=O)[C@@H]2C[C@@H](O)CN2C(=O)[C@H](C(C)C)N2Cc3ccccc3C2=O)c(OCCOCCOCCOCCNC(=O)C[C@@H]2N=C(c3ccc(Cl)cc3)c3c(sc(C)c3C)-n3c(C)nnc32)c1` [Example 1, (2S,4R)-N-{[2-(2-{2-[2-(2-{2-[(9S)-7-(4-chlorophenyl)-4,5,13-trimethyl-3-thia-1,8,11,12-tetraazatricyclo[8.3.0.0^2,^6]trideca-2(6),4,7,10,12-pentaen-9-yl]acetamido}ethoxy)ethoxy]ethoxy}ethoxy)-4-(4-methyl-1,3-thiazol-5-yl)phenyl]methyl}-4-hydroxy-1-[(2S)-3-methyl-2-(1-oxo-2,3-dihydro-1H-isoindol-2-yl)butanoyl]pyrrolidine-2-carboxamide], the Emax was 100% and the DC50 was 0.1 to 1 µM.
With `Cc1ncsc1-c1ccc(CNC(=O)[C@@H]2C[C@@H](O)CN2C(=O)[C@H](C(C)C)N2Cc3ccccc3C2=O)c(OCCOCCOCCOCCOCCNC(=O)C[C@@H]2N=C(c3ccc(Cl)cc3)c3c(sc(C)c3C)-n3c(C)nnc32)c1` [Example 2], the Emax worked out at 41% and the DC50 was greater than 1 µM.
As for `Cc1ncsc1-c1ccc(CNC(=O)[C@@H]2C[C@@H](O)CN2C(=O)[C@H](C(C)C)N2Cc3ccccc3C2=O)c(OCCOCCOCCOCCOCCOCCNC(=O)C[C@@H]2N=C(c3ccc(Cl)cc3)c3c(sc(C)c3C)-n3c(C)nnc32)c1` [Example 3], the Emax was determined as 100% and the DC50 is 0.1 to 1 µM.
With `Cc1ncsc1-c1ccc(CNC(=O)[C@@H]2C[C@@H](O)CN2C(=O)[C@@H](NC(=O)COCCOCCOCCOCCOCCOCCNC(=O)C[C@@H]2N=C(c3ccc(Cl)cc3)c3c(sc(C)c3C)-n3c(C)nnc32)C(C)(C)C)cc1` [Example 4, (2S,4R)-1-[(2S)-2-(20-{2-[(9S)-7-(4-chlorophenyl)-4,5,13-trimethyl-3-thia-1,8,11,12-tetraazatricyclo[8.3.0.0^2,^6]trideca-2(6),4,7,10,12-pentaen-9-yl]acetamido}-3,6,9,12,15,18-hexaoxaicosanamido)-3,3-dimethylbutanoyl]-4-hydroxy-N-{[4-(4-methyl-1,3-thiazol-5-yl)phenyl]methyl}-pyrrolidine-2-carboxamide], the Emax came to 62.2% and the 50% degradation concentration (DC50) lay within 0.1 to 1 µM.
On to `Cc1ncsc1-c1ccc(CNC(=O)[C@@H]2C[C@@H](O)CN2C(=O)[C@H](C(C)C)N2Cc3ccccc3C2=O)c(OCCOCCOCCCOCCOCCNC(=O)C[C@@H]2N=C(c3ccc(Cl)cc3)c3c(sc(C)c3C)-n3c(C)nnc32)c1` [Example 5], for which the Emax came out at 25% and the DC50 is greater than 1 µM.
As to `Cc1ncsc1-c1ccc(CNC(=O)[C@@H]2C[C@@H](O)CN2C(=O)[C@H](C(C)C)N2Cc3ccccc3C2=O)c(OCCOCCOCCCCOCCOCCNC(=O)C[C@@H]2N=C(c3ccc(Cl)cc3)c3c(sc(C)c3C)-n3c(C)nnc32)c1` [Example 6], the Emax came to 100% and the 50% degradation concentration (DC50) was 0.1 to 1 µM.
As to `Cc1ncsc1-c1ccc(CNC(=O)[C@@H]2C[C@@H](O)CN2C(=O)[C@@H](NC(=O)COCCOCCOCCOCCOCCNC(=O)C[C@@H]2N=C(c3ccc(Cl)cc3)c3c(sc(C)c3C)-n3c(C)nnc32)C(C)(C)C)cc1` [Example 7], the Emax was 93% and the half-maximal degradation concentration (DC50) fell in the range of 0.1 to 1 µM.
The matching figures for `Cc1ncsc1-c1ccc(CNC(=O)[C@@H]2C[C@@H](O)CN2C(=O)[C@@H](NC(=O)COCCOCCOCCCOCCOCCNC(=O)C[C@@H]2N=C(c3ccc(Cl)cc3)c3c(sc(C)c3C)-n3c(C)nnc32)C(C)(C)C)cc1` [Example 8]: 95.9% and 0.1 to 1 µM.
Turning to `Cc1ncsc1-c1ccc(CNC(=O)[C@@H]2C[C@@H](O)CN2C(=O)[C@@H](NC(=O)COCCOCCOCCCCOCCOCCNC(=O)C[C@@H]2N=C(c3ccc(Cl)cc3)c3c(sc(C)c3C)-n3c(C)nnc32)C(C)(C)C)cc1` [Example 9], the Emax was determined as 96.4% and the half-maximal degradation concentration (DC50) was in the range of 0.1 to 1 µM.
In the same order, the values of `Cc1ncsc1-c1ccc(CNC(=O)[C@@H]2C[C@@H](O)CN2C(=O)[C@@H](NC(=O)COCCOCCOc2ccc(NC(=O)C[C@@H]3N=C(c4ccc(Cl)cc4)c4c(sc(C)c4C)-n4c(C)nnc43)cc2)C(C)(C)C)cc1` [Example 10, (2S,4R)-1-[(2S)-2-(2-{2-[2-(4-{2-[(9S)-7-(4-chlorophenyl)-4,5,13-trimethyl-3-thia-1,8,11,12-tetraazatricyclo[8.3.0.0^2,^6]trideca-2(6),4,7,10,12-pentaen-9-yl]acetamido}phenoxy)ethoxy]ethoxy}acetamido)-3,3-dimethylbutanoyl]-4-hydroxy-N-{[4-(4-methyl-1,3-thiazol-5-yl)phenyl]methyl}pyrrolidine-2-carboxamide] are 100% and 0.01 to 0.1 µM.
In the same order, the values of `Cc1ncsc1-c1ccc(CNC(=O)[C@@H]2C[C@@H](O)CN2C(=O)[C@@H](NC(=O)COCCOCCOCCOc2ccc(NC(=O)C[C@@H]3N=C(c4ccc(Cl)cc4)c4c(sc(C)c4C)-n4c(C)nnc43)cc2)C(C)(C)C)cc1` [Example 11] are 99.5% and 0.01 to 0.1 µM.
In the same order, the values of `Cc1ncsc1-c1ccc(CNC(=O)[C@@H]2C[C@@H](O)CN2C(=O)[C@@H](NC(=O)COCCOCCOCCOCCOc2ccc(NC(=O)C[C@@H]3N=C(c4ccc(Cl)cc4)c4c(sc(C)c4C)-n4c(C)nnc43)cc2)C(C)(C)C)cc1` [Example 12] are 100% and 0.01 to 0.1 µM.
Regarding `Cc1ncsc1-c1ccc(CNC(=O)[C@@H]2C[C@@H](O)CN2C(=O)[C@@H](NC(=O)COCCCOCCCCOCCCOc2ccc(NC(=O)C[C@@H]3N=C(c4ccc(Cl)cc4)c4c(sc(C)c4C)-n4c(C)nnc43)cc2)C(C)(C)C)cc1` [Example 13], the Emax came to 100% and the DC50 is 0.01 to 0.1 µM.
The matching figures for `Cc1ncsc1-c1ccc(CNC(=O)[C@@H]2C[C@@H](O)CN2C(=O)[C@@H](NC(=O)COCCOCCOCCCCOc2ccc(NC(=O)C[C@@H]3N=C(c4ccc(Cl)cc4)c4c(sc(C)c4C)-n4c(C)nnc43)cc2)C(C)(C)C)cc1` [Example 14]: 100% and 0.01 to 0.1 µM.
The matching figures for `Cc1ncsc1-c1ccc(CNC(=O)[C@@H]2C[C@@H](O)CN2C(=O)[C@@H](NC(=O)COCCCCOCCCOc2ccc(NC(=O)C[C@@H]3N=C(c4ccc(Cl)cc4)c4c(sc(C)c4C)-n4c(C)nnc43)cc2)C(C)(C)C)cc1` [Example 15]: 100% and 0.01 to 0.1 µM.
In the same order, the values of `Cc1ncsc1-c1ccc(CNC(=O)[C@@H]2C[C@@H](O)CN2C(=O)[C@@H](NC(=O)COCCCOCCCOc2ccc(NC(=O)C[C@@H]3N=C(c4ccc(Cl)cc4)c4c(sc(C)c4C)-n4c(C)nnc43)cc2)C(C)(C)C)cc1` [Example 16] are 98.6% and 0.01 to 0.1 µM.
On to `Cc1ncsc1-c1ccc(CNC(=O)[C@@H]2C[C@@H](O)CN2C(=O)[C@@H](NC(=O)COCCOCCOCCCOCCOCCN(C)C(=O)C[C@@H]2N=C(c3ccc(Cl)cc3)c3c(sc(C)c3C)-n3c(C)nnc32)C(C)(C)C)cc1` [Example 17, (2S,4R)-1-[(2S)-2-(18-{2-[(9S)-7-(4-chlorophenyl)-4,5,13-trimethyl-3-thia-1,8,11,12-tetraazatricyclo[8.3.0.0^2,^6]trideca-2(6),4,7,10,12-pentaen-9-yl]-N-methylacetamido}-3,6,9,13,16-pentaoxaoctadecanamido)-3,3-dimethylbutanoyl]-4-hydroxy-N-{[4-(4-methyl-1,3-thiazol-5-yl)phenyl]methyl}pyrrolidine-2-carboxamide], for which the Emax was 85% and the DC50 lay within 0.1 to 1 µM.
In the same order, the values of `Cc1ncsc1-c1ccc(CNC(=O)[C@@H]2C[C@H](O)CN2C(=O)[C@@H](NC(=O)COCCCOCCCOc2ccc(NC(=O)C[C@@H]3N=C(c4ccc(Cl)cc4)c4c(sc(C)c4C)-n4c(C)nnc43)cc2)C(C)(C)C)cc1` [Example 18] are 39% and greater than 1 µM.
Consider `Cc1ncsc1-c1ccc(CNC(=O)[C@@H]2C[C@@H](O)CN2C(=O)[C@@H](NC(=O)COCCCOCCCOc2ccc(NC(=O)C[C@@H]3N=C(c4ccc(Cl)cc4)c4c(sc(C)c4C)-n4c(C)nnc43)cc2F)C(C)(C)C)cc1` [Example 19], for which the Emax was 92% and the DC50 lay within 0.01 to 0.1 µM.
The matching figures for `Cc1ncsc1-c1ccc(CNC(=O)[C@@H]2C[C@@H](O)CN2C(=O)[C@@H](NC(=O)COCCCOCCCOc2ccc(NC(=O)C[C@@H]3N=C(c4ccc(Cl)cc4)c4c(sc(C)c4C)-n4c(C)nnc43)c(F)c2)C(C)(C)C)cc1` [Example 20]: 94% and 0.01 to 0.1 µM.

Usually DC50 stands for the midpoint of the concentration-degradation curve.

The values above are taken from US11554171B2, “Compounds and methods for the targeted degradation of bromodomain-containing proteins” (Arvinas Operations, Inc., priority 2015, dated 2023).
